Drawing on patent publication US7205295B2, “Benzoxazin-3-ones and derivatives thereof as therapeutic agents” (Warner-Lambert Company LLC, priority 2002, dated 2007), this text covers IC50 for 14 compounds.

One may read the IC50 as the concentration that inhibits the measured activity by half.

The assay addresses T1, PI3Kγ (p101/p110γ protein) (Homo sapiens, UniProt P48736).
T1 construct: HA; made in house; host or cells: Spodoptera frugiperda (Sf9) cells, baculovirus co-infection
Briefly: PI3Kγ In Vitro Kinase Assay. It counts as biochemical. Conditions: purified recombinant p101/p110γ with G protein β1/γ2 subunits; 20 μM ATP, 25 μM PIP2; 20 minutes at room temperature. An outline of the steps: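 Sf9-expressed, purified human p101/p110γ (2.7 nM) was activated by Gβ1/γ2 (57.7 nM) and reacted with 20 μM ATP plus [γ-32P]ATP on PIP2 (25 μM)/PE (300 μM) micelles with 10 mM MgCl2 in HEPES buffer. Reactions ran 20 min at room temperature. Filter-captured radiolabeled PIP3 was counted by scintillation.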

Structures can show the parent of a compound that is named as a salt.

T1 sequence (P48736 whole entry, species assumed): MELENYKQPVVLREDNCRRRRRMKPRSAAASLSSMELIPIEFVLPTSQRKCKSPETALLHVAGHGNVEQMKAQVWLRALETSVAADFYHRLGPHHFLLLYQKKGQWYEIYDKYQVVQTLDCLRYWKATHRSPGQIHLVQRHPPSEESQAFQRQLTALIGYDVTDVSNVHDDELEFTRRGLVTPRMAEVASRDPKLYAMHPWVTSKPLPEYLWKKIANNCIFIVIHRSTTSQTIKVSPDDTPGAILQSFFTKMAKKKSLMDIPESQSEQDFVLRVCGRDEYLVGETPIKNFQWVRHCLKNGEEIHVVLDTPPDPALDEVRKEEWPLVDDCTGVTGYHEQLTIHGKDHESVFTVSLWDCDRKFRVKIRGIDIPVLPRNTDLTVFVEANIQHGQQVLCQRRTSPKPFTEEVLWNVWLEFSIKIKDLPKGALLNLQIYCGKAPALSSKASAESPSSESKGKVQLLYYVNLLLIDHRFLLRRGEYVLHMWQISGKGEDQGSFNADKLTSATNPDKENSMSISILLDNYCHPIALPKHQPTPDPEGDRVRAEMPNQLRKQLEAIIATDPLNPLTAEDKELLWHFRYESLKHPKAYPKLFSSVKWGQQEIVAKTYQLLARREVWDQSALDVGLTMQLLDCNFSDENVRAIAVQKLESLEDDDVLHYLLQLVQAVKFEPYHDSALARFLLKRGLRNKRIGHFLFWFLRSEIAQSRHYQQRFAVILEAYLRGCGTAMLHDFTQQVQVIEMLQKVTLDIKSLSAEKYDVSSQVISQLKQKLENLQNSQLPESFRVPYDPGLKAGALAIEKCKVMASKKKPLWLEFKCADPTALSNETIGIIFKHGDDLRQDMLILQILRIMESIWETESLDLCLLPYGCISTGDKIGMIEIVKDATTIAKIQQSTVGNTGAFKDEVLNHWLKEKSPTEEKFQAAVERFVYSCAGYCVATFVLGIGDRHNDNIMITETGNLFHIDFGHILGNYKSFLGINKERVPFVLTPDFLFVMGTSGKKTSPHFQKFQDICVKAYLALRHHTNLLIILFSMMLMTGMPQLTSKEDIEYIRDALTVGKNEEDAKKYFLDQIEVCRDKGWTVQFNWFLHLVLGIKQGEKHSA
T1 sequence (Q8WYR1 whole entry partner, species assumed): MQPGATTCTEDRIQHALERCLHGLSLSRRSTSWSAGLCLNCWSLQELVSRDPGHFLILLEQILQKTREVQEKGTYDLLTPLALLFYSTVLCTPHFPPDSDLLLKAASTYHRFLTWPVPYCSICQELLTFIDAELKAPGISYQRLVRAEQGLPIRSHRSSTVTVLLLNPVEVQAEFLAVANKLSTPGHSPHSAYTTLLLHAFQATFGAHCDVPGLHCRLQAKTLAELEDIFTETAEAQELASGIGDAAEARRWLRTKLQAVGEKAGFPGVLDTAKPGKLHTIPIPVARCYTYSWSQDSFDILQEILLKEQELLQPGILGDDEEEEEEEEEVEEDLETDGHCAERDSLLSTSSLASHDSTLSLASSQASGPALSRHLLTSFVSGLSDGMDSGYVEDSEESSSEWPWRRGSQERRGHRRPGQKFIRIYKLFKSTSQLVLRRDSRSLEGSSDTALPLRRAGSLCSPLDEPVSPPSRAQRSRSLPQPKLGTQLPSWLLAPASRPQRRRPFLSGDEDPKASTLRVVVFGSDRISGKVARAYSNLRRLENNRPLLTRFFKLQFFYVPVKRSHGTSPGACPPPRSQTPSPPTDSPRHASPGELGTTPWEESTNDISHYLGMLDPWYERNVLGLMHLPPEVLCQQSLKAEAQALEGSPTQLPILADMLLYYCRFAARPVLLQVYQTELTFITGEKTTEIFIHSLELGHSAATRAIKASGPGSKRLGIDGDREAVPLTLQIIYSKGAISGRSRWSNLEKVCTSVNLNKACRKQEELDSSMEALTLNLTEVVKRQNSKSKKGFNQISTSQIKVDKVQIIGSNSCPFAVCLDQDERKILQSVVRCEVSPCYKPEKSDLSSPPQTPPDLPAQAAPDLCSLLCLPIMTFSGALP

`O=C1NC(=S)OC1=Cc1ccc2c(c1)N(Cc1ccc(Cl)c(Cl)c1)C(=O)CO2` [Example 191, 4-(3,4-Dichloro-benzyl)-6-(4-oxo-2-thioxo-oxazolidin-5-ylidenemethyl)-4H-1,4-benzoxazin-3-one]: the IC50 is 7 nM.

Turning to `CS(=O)(=O)c1ccc(CN2C(=O)COc3ccc(C=C4SC(=S)NC4=O)cc32)cc1` [Example 192, 4-(4-Methanesulfonyl-benzyl)-6-(4-oxo-2-thioxo-thiazolidin-5-ylidenemethyl)-4H-1,4-benzoxazin-3-one], the IC50 was determined as 8 nM.

For `CS(=O)(=O)c1ccc(CN2C(=O)COc3ccc(C=C4SC(=S)NC4=O)cc32)cc1` [Example 193, 4-(4-Methanesulfonyl-benzyl)-6-(4-oxo-2-thioxo-thiazolidin-5-ylidenemethyl)-4H-1,4-benzoxazin-3-one, Potassium Salt], the IC50 worked out at 6 nM.

As to `O=C1NC(=S)SC1=Cc1ccc2c(c1)N(Cc1ccc(Cl)c(C(F)(F)F)c1)C(=O)CO2` [Example 194, 4-(4-Chloro-3-trifluoromethylbenzyl)-6-(4-oxo-2-thioxo-thiazolidin-5-ylidenemethyl)-4H-1,4-benzoxazin-3-one, Potassium Salt], the IC50 was 6 nM.

Take `O=C1COc2ncc(C=C3SC(=S)NC3=O)cc2N1` [Example 195, 7-(4-Oxo-2-thioxo-thiazolidin-5-ylidenemethyl)-1H-pyrido[2,3-b][1,4]oxazin-2-one]: the IC50 was found to be 1910 nM.

Regarding `O=C1NC(=S)OC1=Cc1ccc2c(c1)N(Cc1ccc(Cl)c(C(F)(F)F)c1)C(=O)CO2` [Example 196, 4-(4-Chloro-3-trifluoromethyl-benzyl)-6-(4-oxo-2-thioxo-oxazolidin-5-ylidenemethyl)-4H-1,4-benzoxazin-3-one], the IC50 worked out at 26 nM.

For `CN1CC(=O)N(Cc2ccccc2)c2cc(C=C3SC(=S)NC3=O)ccc21` [Example 197, 1-Benzyl-4-methyl-7-(4-oxo-2-thioxo-thiazolidin-5-ylidenemethyl)-3,4-dihydro-1H-quinoxalin-2-one], the IC50 was determined as 390 nM.

Regarding `O=C1NC(=S)SC1=Cc1ccc2c(c1)N(Cc1ccc(Cl)c(Cl)c1)C(=O)CS2` [Example 198, 4-(3,4-Dichloro-benzyl)-6-(4-oxo-2-thioxo-thiazolidin-5-ylidenemethyl)-4H-1,4-benzothiazin-3-one], the IC50 worked out at 6 nM.

Take `O=C1NC(=S)OC1=Cc1ccc2c(c1)N(Cc1ccc(Cl)c(Cl)c1)C(=O)CS2` [Example 199, 4-(3,4-Dichlorobenzyl)-6-(4-oxo-2-thioxo-oxazolidin-5-ylidenemethyl)-4H-benzo[1,4]thiazin-3-one]: the IC50 worked out at 9 nM.

Take `O=C1COc2ccc(C=C3NC(=S)NC3=O)cc2N1` [Example 200, 6-(5-Oxo-2-thioxo-imidazolidin-4-ylidenemethyl)-4H-benzo[1,4]oxazin-3-one]: the IC50 was 3640 nM.

As to `CC(C)(C)c1cc(CN2C(=O)COc3ccc(C=C4OC(=S)NC4=O)cc32)cc(C(C)(C)C)n1` [Example 201, 4-(2,6-Di-tert-butyl-pyridin-4-ylmethyl)-6-(4-oxo-2-thioxo-oxazolidin-5-ylidenemethyl)-4H-1,4-benzoxazin-3-one], the concentration for half-maximal inhibition (IC50) was 70 nM.

Regarding `O=C1NC(=O)C(=Cc2ccc3c(c2)N(Cc2ccccc2)C(=O)CO3)S1` [Example 202, 5-(4-Benzyl-3-oxo-3,4-dihydro-2H-1,4-benzoxazin-6-ylmethylene)-thiazolidine-2,4-dione], the IC50 was found to be 3 nM.

`O=C1COc2ccc(C=C3OC(=O)NC3=O)cc2N1` [Example 203, 5-(3-Oxo-3,4-dihydro-2H-1,4-benzoxazin-6-ylmethylene)-oxazolidine-2,4-dione]: the IC50 was determined as 175 nM.

Consider `COc1cc(CN2C(=O)COc3ccc(C=C4SC(=S)NC4=O)cc32)cc(Cl)n1` [Example 205, 4-(2-Chloro-6-methoxy-pyridin-4-ylmethyl)-6-(4-oxo-2-thioxo-thiazolidin-5-ylidenemethyl)-4H-benzo[1,4]oxazin-3-one], for which the IC50 is 32 nM.
